Converted amounts (≈) assume the structure as drawn. “And” between values parts separate entries of the source, which are not always exact repeats. Equal entries are not always repeated.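 Five concentrations, 48 hours, 96-well plates. GI50: concentration for 50% inhibition of growth. TGI: total growth inhibition.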 The source made the active and inactive calls. No stated cut-off is given here; in the data, active means GI50 below about 0.43 µM; inactive means the rest.
Key:
Assay in all cases: DTP human tumour cell line panel, 48 h
[1] = test system: HS 578T breast
[2] = test system: MDA-N
[3] = test system: T-47D breast
[4] = test system: NCI/ADR-RES ovarian
[5] = test system: LXFL 529 NSCLC
[6] = test system: M19-MEL melanoma
[7] = test system: DLD-1 colon
[8] = test system: SNB-78 CNS
[9] = test system: XF 498 CNS

`Cc1cccc(Cl)c1NC(=O)/C=C/c1ccccc1` was tested, and the TGI [1] was greater than 100 µM, the TGI [2] was greater than 100 µM and the TGI [3] was greater than 100 µM.
Molecule `C=C[C@H]1CCC/C=C/[C@@H]2C[C@H](O)C[C@H]2[C@H](O)/C=C/C(=O)O1` has a GI50 [1] of less than 0.01 µM, a TGI [1] greater than 100 µM and a GI50 [4] of 0.0361 µM. For the same molecule, the TGI [4] was greater than 100 µM, the GI50 [3] was 0.0285 µM and the TGI [3] was 0.0973 µM.
For `C=C1C(=O)[C@@]23CC1C(O)[C@@H](OC(C)=O)[C@@H]2C1(C)C(OC(C)=O)C[C@@H](OC(C)=O)C(C)(C)[C@@H]1C[C@H]3OC(C)=O` (stereo partly specified), the GI50 [1] was 2 µg/mL, the TGI [1] was > 10 µM and 5.83 µg/mL and the outcome [5] was “inactive”. It also gave a GI50 [6] of 2.23 µg/mL, a TGI [6] of 4.85 µg/mL and a GI50 [2] of 2.28 µg/mL (≈ 4.27 µM). The TGI [2] was > 10 µM and 5.3 µg/mL, the GI50 [4] was 16.9 µg/mL and the TGI [4] was > 10 µM and 37.2 µg/mL. For the same molecule, the GI50 [3] was 2.14 µg/mL and the TGI [3] was 4.55 µM and 4.57 µg/mL.
For `CCOC(=O)C1=C(Nc2ccc(Cl)cc2Cl)OC/C1=N\NS(=O)(=O)c1ccc(C)cc1`, the TGI [7] was greater than 100 µM, the TGI [5] was greater than 100 µM and the TGI [6] was greater than 100 µM. For the same molecule, the TGI [8] was greater than 100 µM.
Work on `COc1ccc2c(c1)OC1=C(C(=O)OC1)C2c1cc(OC)c(OC)c(OC)c1` (stereo unspecified) yielded a GI50 [1] of 0.324 µM, a TGI [1] greater than 100 µM and a GI50 [4] of 0.325 µM. For the same molecule, the TGI [4] was greater than 100 µM, the GI50 [3] was 0.489 µM and the TGI [3] was greater than 100 µM.
Molecule `C=C(C)CN(CC#N)CC(=C)C` has a TGI [1] greater than 100 µM, a TGI [2] greater than 100 µM and a TGI [4] greater than 100 µM. It also gave a TGI [3] greater than 100 µM.
Molecule `Cc1ccc(-c2nc(N)nc3c2nnn3Cc2cccc(CO[C@H]3CCOC3)n2)o1` has a GI50 [1] greater than 100 µM, a TGI [1] greater than 100 µM and a GI50 [4] greater than 100 µM. For the same molecule, the TGI [4] was greater than 100 µM.
`COC(=O)c1c2c(c(C)[n+]([O-])c1C)C(=O)C=C(NCc1ccc(OC)cc1)C2=O` gave a GI50 [1] of 5.32 µM, a TGI [1] of 21.6 µM and a GI50 [4] of 1.03 µM. It also gave a TGI [4] of 4.85 µM, a GI50 [3] of 0.994 µM and a TGI [3] of 4.18 µM.
For `O=C1c2ccccc2C2(O)NC(=S)N(c3ccccc3)C12O` (stereo unspecified), the TGI [7] was greater than 100 µM, the TGI [5] was greater than 100 µM and the TGI [6] was greater than 100 µM. For the same molecule, the TGI [8] was greater than 100 µM and the TGI [9] was greater than 100 µM.
With `O=C1c2cc([N+](=O)[O-])ccc2-c2cccc(F)c21` the TGI [1] was greater than 100 µM, the TGI [2] was greater than 100 µM and the TGI [4] was greater than 100 µM. For the same molecule, the TGI [3] was 66.1 µM.
For `NC1CCCCC1N.O=S(=O)([O-])CCCN1CCOCC1.O=S(=O)([O-])CCCN1CCOCC1.[Pt+4]`, the GI50 [7] was 28.3 µM, the TGI [7] was greater than 100 µM and the GI50 [5] was 27.4 µM. It also gave a TGI [5] greater than 100 µM, a GI50 [6] of 4.52 µM and a TGI [6] greater than 100 µM. The GI50 [8] was greater than 100 µM and the TGI [8] was greater than 100 µM.
`Cc1cc(I)cc(CN(C)CCN2CCCC2)c1O` was tested, and the GI50 [1] was 31.6 µM, the TGI [1] was 67.1 µM and the GI50 [4] was 30.1 µM. For the same molecule, the TGI [4] was greater than 100 µM, the GI50 [3] was 21.5 µM and the TGI [3] was 76 µM.
Work on `COc1cc2c(Oc3ccc4[nH]c(C)cc4c3F)ccnc2cc1OCC1(N)CC1` yielded a GI50 [1] of 0.759 µM, a TGI [1] of 3.29 µM and a GI50 [4] of 2.31 µM. It also gave a TGI [4] greater than 100 µM, a GI50 [3] of 3.64 µM and a TGI [3] of 28.5 µM.
`O=C1NC(=S)NC(=O)C1=Cc1cccc2cc3ccccc3cc12` was tested, and the TGI [1] was greater than 25.6 µM, the TGI [2] was 4.69 µM and the TGI [4] was 5.89 µM. The TGI [3] was 3.86 µM.
Work on `C1CCN(C2OC3C(COC3N3CCCCC3)OC2OC2CCO[C@@H]2N2CCCCC2)CC1` (stereo partly specified) yielded a TGI [7] greater than 100 µM, a TGI [5] of 68.5 µM and a TGI [8] of 56.1 µM. For the same molecule, the TGI [9] was 37.3 µM.
`Cc1ccc(C(=O)C(Cl)C(Cl)c2ccc(C)cc2)cc1` (stereo unspecified) was tested, and the TGI [1] was 76.3 µM, the TGI [2] was 6.18 µM and the TGI [4] was 6.15 µM. For the same molecule, the TGI [3] was 4.86 µM.
`O=c1[nH]ccc2nc(N3CCC(O)CC3)nc(Nc3cccc(C(F)(F)F)c3)c12` was tested, and the GI50 [1] was 1.93 µM, the TGI [1] was 14.1 µM and the GI50 [4] was 2.37 µM. The TGI [4] was 7.33 µM, the GI50 [3] was 3.11 µM and the TGI [3] was 26.1 µM.
In the case of `O=C(O)CC12C3C4C5C3C1C5C42` (stereo unspecified), the TGI [7] is reported as greater than 100 µM, the TGI [5] is reported as greater than 100 µM and the TGI [6] is reported as greater than 100 µM. For the same molecule, the TGI [8] was greater than 100 µM and the TGI [9] was greater than 100 µM.
With `Cc1ccc(NC(=O)CCC/C(CC(=O)c2ccc(Br)cc2)=N/NC(=O)CC#N)cc1` the TGI [7] was greater than 100 µM, the TGI [5] was greater than 100 µM and the TGI [6] was greater than 100 µM. The TGI [8] was greater than 100 µM.
`CCN=c1cc2sc3cc(NCC)c(C)cc3nc-2cc1C` showed a GI50 [1] of 2.14 µM, a TGI [1] of 15.2 µM and a GI50 [4] of 1.77 µM. For the same molecule, the TGI [4] was 7.31 µM, the GI50 [3] was 0.58 µM and the TGI [3] was 10.5 µM.
In the case of `O=CN1N=C(c2ccc(Cl)cc2)CC1c1cccc(Nc2ccnc3cc(Cl)ccc23)c1` (stereo unspecified), the GI50 [1] is reported as 3.23 µM, the TGI [1] is reported as greater than 100 µM and the GI50 [4] is reported as 0.784 µM. The TGI [4] was greater than 100 µM, the GI50 [3] was 0.817 µM and the TGI [3] was 17.7 µM.
Work on `COC1OC(C)C(O)CC1OS(=O)(=O)c1ccc(C)cc1` (stereo unspecified) yielded a TGI [5] greater than 100 µM, a TGI [6] greater than 100 µM and a TGI [8] greater than 100 µM.
With `O=C(Nc1ccc(F)cc1)C(=O)C(C1OC(=O)c2ccccc21)[N+](=O)[O-]` (stereo unspecified) the TGI [7] was greater than 100 µM, the TGI [5] was greater than 100 µM and the TGI [6] was greater than 100 µM. It also gave a TGI [8] greater than 100 µM and a TGI [9] greater than 100 µM.
With `C=CCN1C=CC(=O)[C@H](O[Si](C)(C)C(C)(C)C)[C@@H]1/C=C/c1ccccc1` the GI50 [1] was 14.1 µM, the TGI [1] was 34.3 µM and the GI50 [4] was 13.3 µM. It also gave a TGI [4] of 26.8 µM, a GI50 [3] of 4.04 µM and a TGI [3] of 17 µM.
For `COc1cccc(-c2nc3sccn3c2-c2ccnc(NCCNS(=O)(=O)c3ccccc3)c2)c1`, the GI50 [1] was 3.7 µM, the TGI [1] was greater than 100 µM and the GI50 [4] was 2.66 µM. The TGI [4] was 23.9 µM, the GI50 [3] was 0.776 µM and the TGI [3] was 4.96 µM.
`NC(=N\N=C/c1cccc([N+](=O)[O-])c1)/C(N)=N\N=C/c1cccc([N+](=O)[O-])c1` gave a GI50 [1] greater than 100 µM, a TGI [1] greater than 100 µM and a GI50 [4] greater than 100 µM. For the same molecule, the TGI [4] was greater than 100 µM, the GI50 [3] was greater than 100 µM and the TGI [3] was greater than 100 µM.
`O=P([O-])(O)OP(=O)([O-])O.[NH-][C@@H]1CCCC[C@H]1[NH-].[Pt+4]` was tested, and the GI50 [1] was > 100 µM and 56.5 µM, the TGI [1] was greater than 100 µM and the GI50 [4] was 38.4 µM and 5.2 µM. The TGI [4] was greater than 100 µM, the GI50 [3] was 18.4 µM and 4.82 µM and the TGI [3] was > 100 µM and 39.5 µM.
In the case of `CC1(C)CC(n2cnc(-c3ccc(F)cc3)c2-c2ccnc(N)n2)CC(C)(C)N1`, the GI50 [1] is reported as greater than 25 µM, the TGI [1] is reported as greater than 25 µM and the GI50 [4] is reported as greater than 25 µM. It also gave a TGI [4] greater than 25 µM, a GI50 [3] of 24.3 µM and a TGI [3] greater than 25 µM.
With `c1cc(OCCN2CCCCC2)ccc1CNc1ccc2nc(CCC3CCCCC3)[nH]c2c1` the GI50 [1] was 1.64 µM, the TGI [1] was 4.64 µM and the GI50 [4] was 2.21 µM. For the same molecule, the TGI [4] was 5.74 µM, the GI50 [3] was 1.71 µM and the TGI [3] was 4.52 µM.

Source: PubChem BioAssay (NCI)
